A short description of data set [1]: physchem. The note with it: buffered water, pH 4, aqueous buffer, thermodynamic from solid.
Procedure: Milligram size (2 mg) quantities of each sample were placed into a vial. Buffered water (pH 4, 7, and 10) was added and the vials were stirred for a few minutes, followed by visual observation for remaining solids. The solvent was incrementally added until the solids were dissolved, or a maximum volume of solvent (10 mL) was added and the experiment was terminated.
Data set [2] can be described thus: Stability of stressed salts and free acid by HPLC total area normalization. As to conditions: for Stability compared to free acid: Table 6 summary, in solution. Here is the method:
The scaled up salts and free acid were challenged by heat (solids stored at 25 and 60° C. for 1 week), oxidation (solids stored in oxygen headspace at 25° C. for 1 week), light (solids exposed≥1×ICH International Conference on Harmonization of Technical Requirements for Registration of Pharmaceuticals for Human Use UV confirmatory conditions), and solutions (HPLC diluent-methanol) at 25 and 40° C. for 1 week.
These samples were analyzed, along with unstressed controls, by HPLC to characterize their stability.
Salt candidates were analyzed by total area normalization (TAN). The samples were dissolved in methanol at a concentration of 0.8 mg/mL.
The three salts (lysine, arginine, and tris) were challenged using heat (solids stored at 25 and 60° C. for 1 week), oxidation (solids stored in oxygen headspace at 25° C. for 1 week), light (UV source under ICH confirmatory conditions>200 Whr/m^2), and solutions (in HPLC diluent) at 25 and 40° C. for 1 week. Stressed samples were analyzed using HPLC to determine their impurity profiles.

Data set [3] can be described thus: Hygroscopicity - Dynamic Vapor Sorption (DVS). The note with it: for DVS total weight gain: at 95% RH, 25° C.; for Hydration properties DVS: hydrate formed: Table 6 summary.
Procedure: DVS is a gravimetric screening technique that measures how quickly and how much of a solvent (water) is adsorbed by a sample. The relative humidity or vapor concentration surrounding the sample is varied while the change in mass of the sample is measured. […] The mass values at each relative humidity step are used to generate the isotherm. Isotherms are divided in two components: sorption for increasing humidity steps and desorption for decreasing humidity steps.
Samples were analyzed using a TA Q2000 automated dynamic vapor sorption analyzer. The samples were dried at 40° C. for 5 hours and then cooled to 25° C. with a dry nitrogen purge over them until they no longer lost mass at 0% RH.
The conditions of data set [4]: salt forming base; cited from earlier work.
Data set [5] in a line: Static humidity experiments, gravimetric weight change. It counts as physicochemical. The source says:
Formation of hydrates can be a very slow kinetic process. A second approach to identify hydrate formation is performing static humidity experiments and monitor gravimetrically for weight change.

For data set [6] the following is noted: cited from earlier work; for Class (safety and pharmaceutical acceptability of the counter-ions): salt forming base; for Counter Ion Class: Table 6 summary.
Data set [7] has as its system 4T1 mammary tumor. Nature of the data set: Anti-tumor efficacy in 4T1 mouse model of metastatic mammary cancer. The note with it: diet with 3 g/kg chow (0.3% w/w), started 9 days post tumor injection. The class given is in vivo, BALB/c mice. The source says: The lysine salt was incorporated into standard mouse chow at an amount of 3 g/kg chow (0.3% w/w) by Harlan Teklad, Madison Wis. Half of the mice were placed on an α-TEA-Lys diet after the tumors were established (9 days post tumor injection.) and the rest placed on an analogous nutrient diet without α-TEA-Lys which served as the control group.

[8] abbreviates: Oxidation Ambient (oxygen headspace, 25° C., 1 week).
[9] abbreviates: Photo Stability Exposed (UV, ICH confirmatory conditions).
[10] abbreviates: Solid State Ambient (25° C., 1 week).
[11] abbreviates: Solution 40° C. Methanol, 1 week.
[12] abbreviates: Solution Ambient Methanol, 1 week.

One may read the solubility as the concentration that dissolves in the medium under given conditions. Lower therefore signals little dissolved substance. Turning to `Cc1c(C)c2c(c(C)c1OCC(=O)O)CC[C@@](C)(CCC[C@H](C)CCC[C@H](C)CCCC(C)C)O2` [α-TEA free acid, α-tocopheryloxyacetic acid, reference compound], the solubility in data set [1] is under 200 µg/mL. In addition, the “HLPC Total Area Normalization - Area % Purity” value was 97.8 Area % in data set [2] (setting [8]); 97.7 Area % in data set [2] (Photo Stability Dark Control); 98.2 Area % in data set [2] (setting [9]); 98.0 Area % in data set [2] (Solid State 60° C., 1 week); 97.8 Area % in data set [2] (setting [10]); 94.6 Area % in data set [2] (setting [11]). In addition, the “HLPC Total Area Normalization - Area % Purity” value in data set [2] (setting [12]) stood at 96.0 Area %. Besides, the “DVS conclusion on hydrate formation / deliquescence” value in data set [3] (0 to 95% RH) is recorded as “does not form hydrates or exhibit deliquescence”. Also, in data set [3], the “DVS total weight gain” value is on record as “about 0.2%”.

The pKa is the pH at which an ionisable group is half protonated. Turning to `CN(C)CCO` [deanol, N,N-dimethylethanolamine, N,N-dimethylethanolamine], the pKa in data set [4] is listed as 8.8.

Regarding `Cc1c(C)c2c(c(C)c1OCC(=O)O)CCC(C)(CCCC(C)CCCC(C)CCCC(C)C)O2.NC(CO)(CO)CO` (stereo not drawn) [α-TEA tris salt], the “HLPC Total Area Normalization - Area % Purity” value in data set [2] (setting [8]) is recorded as 98.5 Area %; in data set [2] (Photo Stability Dark Control), 98.2 Area %; in data set [2] (setting [9]), 98.7 Area %; in data set [2] (Solid State 60° C., 1 week), 98.4 Area %; in data set [2] (setting [10]), 98.6 Area %; in data set [2] (setting [11]) it was 98.2 Area %. For the same molecule, in data set [2] (setting [12]), the “HLPC Total Area Normalization - Area % Purity” value stood at 98.5 Area %. In addition, the “Stability compared to free acid” value in data set [2] is “more stable”. Further, the “Hydration properties Static 75% RH 30 Days, weight gain” value in data set [5] (75% RH) is 4.0 wt %. Also, the “static humidity weight gain” value in data set [5] (75% RH, 33 days) is reported as 4.0%. Also, the “Hydration properties DVS: hydrate formed” value in data set [3] is reported as “hemihydrate”.

In the case of `[Ca+2].[OH-].[OH-]` [calcium hydroxide], the “Class (safety and pharmaceutical acceptability of the counter-ions)” value in data set [6] is on record as “I”.

Turning to `Cc1c(C)c2c(c(C)c1OCC(=O)O)CCC(C)(CCCC(C)CCCC(C)CCCC(C)C)O2.NCCCC[C@H](N)C(=O)O` (stereo not drawn) [α-TEA lysine salt], the “HLPC Total Area Normalization - Area % Purity” value in data set [2] (setting [8]) was 98.8 Area %; in data set [2] (Photo Stability Dark Control) it was 98.7 Area %; in data set [2] (setting [9]), 98.8 Area %; in data set [2] (Solid State 60° C., 1 week) it was 98.7 Area %; in data set [2] (setting [10]), 98.8 Area %; in data set [2] (setting [11]) it was 98.2 Area %. In data set [2] (setting [12]), the “HLPC Total Area Normalization - Area % Purity” value is given as 98.8 Area %. Further, the “Stability compared to free acid” value in data set [2] is on record as “more stable”. In addition, the “average tumor size compared to control diet” value in data set [7] is recorded as “significant decrease in average tumor size”. For the same molecule, the “complete tumor regression, share of the mice treated” value in data set [7] was “about 25%”. Besides, the “survival compared to control diet (Kaplan-Meier)” value in data set [7] was “increased survival”. Moreover, the “Counter Ion Class” value in data set [6] is given as “I”. In data set [5] (75% RH), the “Hydration properties Static 75% RH 30 Days, weight gain” value amounted to 0.6 wt% wt %. In addition, the “static humidity weight gain” value in data set [5] (75% RH, 33 days) is 0.6%; in data set [5] (84% RH, 9 days), 1.8%. In addition, the “Hydration properties DVS: hydrate formed” value in data set [3] is “hydrate”. For the same molecule, the “DVS total weight gain” value in data set [3] was “about 12%”. For the same molecule, the “DVS residual weight after desorption cycle” value in data set [3] (corresponds to a putative hydrate) was 2 weight %.

Take `N=C(N)NCCC[C@H](N)C(=O)O` [L-Arginine]: the “Class (safety and pharmaceutical acceptability of the counter-ions)” value in data set [6] was “I”.

Regarding `NCCCC[C@H](N)C(=O)O` [L-Lysine], in data set [6], the “Class (safety and pharmaceutical acceptability of the counter-ions)” value is “I”.

For the molecule `[Mg+2].[OH-].[OH-]` [magnesium hydroxide], the “Class (safety and pharmaceutical acceptability of the counter-ions)” value in data set [6] is on record as “I”.

Turning to `C[N+](C)(C)CCO` [Choline], in data set [6], the “Class (safety and pharmaceutical acceptability of the counter-ions)” value is “I”. In addition, the pKa in data set [4] is on record as over 11.

As to `Cc1c(C)c2c(c(C)c1OCC(=O)O)CCC(C)(CCCC(C)CCCC(C)CCCC(C)C)O2.N=C(N)NCCC[C@H](N)C(=O)O` (stereo not drawn) [α-TEA arginine salt], the “HLPC Total Area Normalization - Area % Purity” value is recorded as 98.4 Area % in data set [2] (setting [8]); 97.9 Area % in data set [2] (Photo Stability Dark Control); 98.5 Area % in data set [2] (setting [9]); 98.6 Area % in data set [2] (Solid State 60° C., 1 week); 98.6 Area % in data set [2] (setting [10]); 98.2 Area % in data set [2] (setting [11]). Besides, the “HLPC Total Area Normalization - Area % Purity” value in data set [2] (setting [12]) was 98.4 Area %. In addition, the “Stability compared to free acid” value in data set [2] is recorded as “more stable”. Besides, in data set [6], the “Counter Ion Class” value is “I”. Further, the “Hydration properties Static 75% RH 30 Days, weight gain” value in data set [5] (75% RH) is given as 0.7 wt %. The “static humidity weight gain” value in data set [5] (75% RH, 33 days) was 0.7%; in data set [5] (84% RH, 9 days), 2.3%. Moreover, in data set [3], the “Hydration properties DVS: hydrate formed” value was “hemihydrate”.

Turning to `[K+].[OH-]` [potassium hydroxide], the “Class (safety and pharmaceutical acceptability of the counter-ions)” value in data set [6] was “I”.
